How the values were obtained:
Test in all cases: LDH cytotoxicity assay after light-triggered release
Type in all cases: cell-based
[1] = test system: MDA-MB-231 breast cancer cells; conditions: pulsed laser-induced release (25 mW, 160 fs, 2 min) from NS@DNA1@DTX, FIG. 7A; 24 h
Description: (§1) Cellular cytotoxicity resulting from light-triggered release of DTX and LAP from both dsDNA and HSA nanohost molecules was evaluated. Cells were irradiated, according to one or more embodiments, with either a CW laser imparting 1.5 W of power or with a pulsed-laser using a Ti:Sapphire tunable laser operating at 250 kHz with an average power of 25 mW and 160-fs pulsed-laser power for 2 min.
(§2) After the guest molecules were released, each sample was treated at 37° C., 5% CO2 for a treatment period of 24 h to allow time for the released drug guest molecules to interact with the cells. Cell death was evaluated with a lactate dehydrogenase (LDH) cytotoxicity assay. Percent cytotoxicity values were calculated considering 10% cell death in the control experiment, NS @host with no laser treatment.

[2] = test system: SKBR3 breast cancer cells; conditions: released LAP; HER2 expressing breast cancer cells vs noncancerous cells
Description: as §1, §2
(§3) LAP was released from both an NS @DNA nanohost control and an NS @HSA nanohost in both SKBR3 breast cancer cells and RAW 264.7 macrophage cells.

[3] = test system: RAW 264.7 macrophage cells; conditions: macrophages lack the HER2 receptor
Description: as §1, §2, §3

| SMILES | cell death (LDH) [1] | selectivity of cell death [2] | cytotoxicity in macrophages [3] |
| --- | --- | --- | --- |
| CC(=O)O[C@@]12CO[C@@H]1C[C@H](O)[C@@]1(C)C(=O)[C@H](O)C3=C(C)[C@@H](OC(=O)[C@H](O)[C@@H](NC(=O)OC(C)(C)C)c4ccccc4)C[C@@](O)([C@@H](OC(=O)c4ccccc4)[C@H]21)C3(C)C [DTX, docetaxel] | No increased cell death | – | – |
| CS(=O)(=O)CCNCc1ccc(-c2ccc3ncnc(Nc4ccc(OCc5cccc(F)c5)c(Cl)c4)c3c2)o1 [LAP, lapatinib] | – | selectively induces cell death in HER2 expressing breast cancer cells, without affecting noncancerous cells | does not cause cytotoxicity |
